Results published in patent EP1813636A1, “Polyamine analogs that activate antizyme frameshifting” (MediQuest Therapeutics, Inc., priority 2004, dated 2007).

How the values were obtained:
HEK-293 cells [1] = assay: rescue from DFMO-induced growth inhibition (6 days, MTS/PMS dye assay); type: cell-based; conditions: 25 µM compound, 2.5 mM DFMO
Method: The rescue coefficient represents the ratio of cell growth, as measured by O.D., of the test compound with 2.5 mM DFMO versus 2.5 mM DFMO alone.
HEK-293 cells are plated in 96-well assay plates at 1,000 cells per well in 100 µL of medium (DMEM supplemented with 10% fetal bovine serum (Gibco), 1% penicillin, streptomycin and L-glutamine). The cells are incubated overnight at 37°C in an atmosphere of 5% CO2. Compounds are added the next day to a final concentration of 25 µM along with 1 mM aminoguanidine (inhibits serum amine oxidase) and 2.5 mM DFMO in a final volume of 200 µL medium. The positive control contained 25 µM spermidine. The cells are allowed to incubate for 6 days before cell growth is measured by MTS/PMS dye assay (Cell Titer 96 Aqueous Non-Radioactive Cell Proliferation Assay, Promega). […] Therefore, DFMO alone has a value of one. […] If the value is less than one, then the compound is growth inhibitory. If the value is 0, the compound is cytotoxic.

antizyme frameshifting = assay: dual luciferase reporter assay for antizyme frameshifting in HEK-293 cells; type: cell-based; conditions: for frameshift-rescue factor (FRF): %RF multiplied by the inverse of the rescue coefficient
Method: Frameshifting can be detected using a dual luciferase reporter system that measures the efficiency of antizyme translational frameshifting (Grentzmann, G. et. al., RNA 4:479-486 (1998); Howard, M. et. al., Genes to Cells 6:931-941 (2001)). Frameshifting efficiency is determined by comparing the ratio of firefly luciferase to renilla luciferase activity in cells transfected in parallel using a control vector containing a constitutive […] (AZ-IF) that measures the in-frame translation efficiency and a vector containing the inducible 0 to +1 frameshift (AZ1) construct. In these constructs, the renilla luciferase gene is upstream of the firefly luciferase gene which are separated by a short cloning sequence containing the portions of antizyme 1 and 2 known to contain the mRNA signals for polyamine stimulated frameshifting. Using a 96-well format, this assay system gives a quantitative measure of the efficiency of the polyamines, polyamine analogs and other compounds to induce frameshifting in a cell-based bioassay. Cells must be pretreated with α-difluoromethylomithine (DFMO), an irreversible inhibitor of ODC, prior to screening to decrease the basal antizyme frameshifting levels and increase the sensitivity to polyamine or compound-mediated stimulation of antizyme frameshifting.
Figure 1 is a tabular representation of a large number of polyamines A-S (25 µM) that were tested for their ability to induce antizyme frameshifting using the dual luciferase reporter assay. The percent relative frameshifting value (% RF) gives a comparison of the ability of a compound to induce frameshifting compared to 25 µM spermidine. The % RF was calculated as follows. The background percent frameshifting activity determined from the 2.5 mM DFMO negative control was subtracted from the percent frameshifting activity for all compounds including the spermidine control. The background corrected frameshifting activity of each compound was then divided by the background corrected frameshifting activity induced by 25 µM spermidine and multiplied by 100. The compounds were also evaluated for their ability to rescue cells from DFMO-induced growth inhibition by determining their rescue coefficient. The rescue coefficient represents the ratio of the cell growth, as measured by O.D., in the presence of the test compound with 2.5 mM DFMO to the growth in the presence of 2.5 mM DFMO alone. The frameshift-rescue factor (FRF) is a useful factor to compare the effectiveness of the various antizyme frameshifters by taking into account their potency for inducing frameshifting and ability to rescue cells from DFMO-induced growth inhibition. The FRF was calculated by multipling the %RF value by the inverse of the rescue coefficient.
Values represent percent frameshifting following transient transfection of an AZ1-IF control and the inducible 0 to +1 AZ1 plasmid construct into HEK-293 cells grown in the presence of 2.5 mM DFMO. The compounds were added to the cells after transfection and incubated overnight before assaying the next day. Each value represents triplicate measurements.
A series of compounds are screened for their ability to induce frameshifting using the dual luciferase reporter assay. HEK-293 cells are plated in white sided, clear-bottomed 96-well assay plates at 15,000 cells per well in 100 µL of medium (DMEM supplemented with 10% fetal bovine serum (Gibco), 1% penicillin, streptomycin and L-glutamine) containing 2.5 mM DFMO. […]

HEK-293 cells [2] = assay: cells
Method: Cell number was determined by MTS/PMS assay from triplicate wells. Cells are plated in 96-well plates such that they would be in log growth for the duration of the assay. The day after plating, the polyamine analogs are added to the cells, and growth, if any, permitted to continue for six days in the presence of 1 mM AG and 1 µM SPD when appropriate. At the end of six days, cell growth is measured by MTS/PMS dye assay (Cell Titer 96 Aqueous Non-Radioactive Cell Proliferation Assay; Promega, Madison, WI).

HEK-293 cells [3] = assay: intracellular polyamine levels (HPLC) and cell growth after 6-day incubation; type: cell-based
Method: Figure 6 is a graph showing the effect of a 6-day incubation of compound A on HEK-293 cellular polyamine levels and cell growth. All flasks received 1 mM aminoguanidine. Cells were washed, counted, lysed in perchloric acid, dansylated and polyamine levels determined by HPLC. Each value represents the average of triplicate values with the error bars representing standard deviation. Figure 7 illustrates the effect of extracellular compound A on the intracellular concentration of compound A in HEK-293 cells as determined by HPLC. Cells were prepared as in Figure 6. Peak area was normalized by dividing the peak area of the compound divided by the peak area of the internal standard, diaminoheptane. Values represent at least triplicate measurements with the error bars representing standard deviation.
Compound A is further evaluated to determine if it depletes intracellular polyamine levels in HEK-293 cells in a dose-dependent fashion (Fig. 6). […] After overnight incubation at 37°C in an atmosphere of 5% CO2, compound A is added along with 1 mM aminoguanidine. The flasks are then incubated for 6 days at 37°C in an atmosphere of 5% CO2. The cells are harvested by washing twice with ice-cold 1X PBS, trypsinized, counted, and lysed in 0.4 N perchloric acid. Diaminoheptane is used in all dansylation reactions as an internal standard. Peak area is normalized by dividing the peak area of the compound divided by the peak area of the internal standard. The HPLC method for the fluorometric detection of polyamines from the cell extracts is based on the procedure by Kabra (Kabra, P. M. et. al. J. Chromatogr. 380:19-32 (1986)).

ODC = target: T1, ODC (Homo sapiens, UniProt P11926); conditions: inhibition of ODC; cited from earlier work
T1 sequence (P11926 1-461): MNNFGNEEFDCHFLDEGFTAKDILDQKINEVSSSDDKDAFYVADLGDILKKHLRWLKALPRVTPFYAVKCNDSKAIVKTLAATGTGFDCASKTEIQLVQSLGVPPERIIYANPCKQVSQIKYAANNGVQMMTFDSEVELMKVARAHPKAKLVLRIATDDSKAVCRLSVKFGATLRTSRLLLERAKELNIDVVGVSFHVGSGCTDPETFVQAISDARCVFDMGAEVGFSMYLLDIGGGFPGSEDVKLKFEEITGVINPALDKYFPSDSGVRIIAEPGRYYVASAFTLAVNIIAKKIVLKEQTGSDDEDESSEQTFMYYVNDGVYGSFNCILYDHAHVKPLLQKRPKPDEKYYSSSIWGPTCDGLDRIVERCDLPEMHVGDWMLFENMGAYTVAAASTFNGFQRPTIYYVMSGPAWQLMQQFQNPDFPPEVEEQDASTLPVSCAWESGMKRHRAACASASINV

antizyme = conditions: 10 µM; cited from earlier work

NCCCCNCc1ccc(CNCCCN)cc1 [Compound B]
ability to rescue cells from DFMO-induced growth inhibition (HEK-293 cells [1]): neither compound A nor B significantly rescue cells
potency in inducing antizyme frameshifting compared with agmatine (antizyme frameshifting; 25 µM, Fig 2): more potent than agmatine
frameshift-rescue factor (FRF) (antizyme frameshifting; 25 µM): 83

NCCCN(CCCN)Cc1ccc(CN(CCCN)CCCN)cc1 [Compound S, reference compound]
%RF (percent relative frameshifting) (antizyme frameshifting; 25 µM compound, relative to 25 µM spermidine): 100%

NCCCNCc1ccc(CN)cc1 [Compound A]
concentration range of compound A in which 1 µM spermidine rescues cells from growth inhibition (HEK-293 cells [2]; HEK-293 cells, addition of 1 µM spermidine): 3 to 100 µM
IC50 (HEK-293 cells [2]; Homo sapiens, HEK293, 144 h, read-out: IC50 for growth inhibition, HEK-293 cells, 6 days, 1 mM aminoguanidine): ~60 µM
cell growth decreasing by (HEK-293 cells [3]; 10 µM compound A, 6 days): 32%
spermidine levels down by (HEK-293 cells [3]; 10 µM compound A, 6 days): about 90%
cell growth decreasing by (HEK-293 cells [3]; 30 µM compound A, 6 days): 38.5%
spermine levels reduced by (HEK-293 cells [3]; 100 µM compound A, 6 days): 50%
spermine levels, percent of normal (HEK-293 cells [3]; compound A levels above 30 µM): approximately 50%
frameshift-rescue factor (FRF) (antizyme frameshifting; 25 µM): 120
EC50 (antizyme frameshifting; Homo sapiens, HEK293, HEK-293 cells, 2.5 mM DFMO, concentration giving 50% of the maximum percent frameshifting (plateau), read-out: EC50 for induction of frameshifting): ~120 µM

N=C(N)NCCCCN [Agmatine, reference compound]
ability to rescue cells from DFMO-induced growth inhibition (HEK-293 cells [1]): somewhat better than either A or B

Nc1ccc(N)cc1 [1,4-phenylenediamine]
Ki (ODC): 46 µM

CCNCCCCNCCCCNCCCCNCC [bisethylhomospermine]
antizyme induction compared with spermine (antizyme): induce antizyme as well as spermine

CCNCCCNCCCNCCCNCC [bisethylnorspermine]
antizyme induction compared with spermine (antizyme): induce antizyme as well as spermine

NC/C=C/CN [1,4-diamino-trans-2-butene]
Ki (ODC): 2 µM

CCNCCCCNCCCCNCCCCNCCCCNCC [BE-4-4-4-4, 1,19-bis(ethylamino)-5,10,15-triazanonadecane]
antizyme induction compared with spermine (antizyme): induce antizyme as well as spermine
